This is an account of results in patent US20080233206A1, “COMPOSITIONS AND METHODS FOR ANTI-INFLAMMATORY TREATMENTS” (Molecular Research Center, Inc., priority 2007, published 2008).

Like-named read-outs stand apart in the source and are kept apart here.

One data set has as its system various cell types. To be noted: in vitro and in vivo; cited from earlier work.
For data set [1], the system named is human intestine cell line CCL-221. Put plainly: Growth of human intestine cell line CCL-221. It is filed as cell-based. To be noted: 5 μg/ml. The source says: (§1) The intestine epithelial cells have a high proliferation rate. Thus, the anti-proliferating effect of semisynthetic or synthetic tetracyclines may lead to potential side effects, especially during a long-term therapy.

For data set [2] the following is noted: cited from earlier work.
Data set [3] has as its system human lymphoma Molt-4 cells. Put plainly: Growth of human lymphoma Molt-4 cells. The class given is cell-based. To be noted: 5 μg/ml, read-out: inhibition of cell growth.
From the text: as §1

For data set [4] the following is noted: prolonged treatment (for acne); cited from earlier work.
[5] abbreviates: human subjects, concurrently with a protein diet (Welling, 1977).

For `NC(=O)C1=C(O)C[C@@H]2C[C@@H]3Cc4cccc(O)c4C(=O)C3=C(O)[C@]2(O)C1=O` [CMT-3], in the data set on various cell types, the “effect on cell proliferation” value is “inhibit proliferation”.
The inhibition is how much of the control response was suppressed. For the compound `C[C@H]1c2cccc(O)c2C(=O)C2=C(O)[C@]3(O)C(=O)C(C(N)=O)=C(O)[C@@H](N(C)C)[C@@H]3[C@@H](O)[C@@H]21` [doxycycline], the inhibition at 5 µg/mL in data set [1] is roughly 60%; in data set [3], roughly 80%. The serum level in data set [2] (fasting subjects (Depperman, 1989)) is 2700 ng/mL; in data set [2] (setting [5]), 2600 ng/mL; in data set [2] (with antacid (aluminum-magnesium hydroxide) (Depperman, 1989)) it was 450 ng/mL.
As to `CN(C)c1ccc(O)c2c1C[C@H]1C[C@H]3[C@H](N(C)C)C(O)=C(C(N)=O)C(=O)[C@@]3(O)C(O)=C1C2=O` [minocycline], the induced syndrome entry in data set [4] was “drug-induced lupus”.
`CN(C)[C@@H]1C(O)=C(C(N)=O)C(=O)[C@@]2(O)C(O)=C3C(=O)c4c(O)cccc4[C@@](C)(O)[C@H]3C[C@@H]12` [tetracycline, 4-(Dimethylamino)-1,4,4α,5,5α,6,11,12α-octahydro-3,6,10,12,12α-pentahydroxy-6-methyl-1,1′-dioxo-2-naphtacenecarobxamide]: the serum level in data set [2] (setting [5]) was 1800 ng/mL. The inhibition at 5 µg/mL in data set [3] is roughly 20%.
